Values of other authors, collected in PubChem BioAssay AID1259409 (Chemical Carcinogenesis Research Information System (CCRIS), 2018).

System: rodent chemically induced tumor inhibition, incidence and multiplicity
Test: CCRIS tumor inhibitor studies
Details: Dose [Inhibitor]: 0, Route [Inhibitor]: ORAL, Promoter: NONE USED

Cc1c(-c2cnccn2)ssc1=S
tumour outcome (control, treated, inhibition, significance) (Carcinogen: 2-AMINO-1-METHYL-6-PHENYLIMIDAZO[4,5-B]PYRIDINE, 105650-23-5, 200 PPM IN DIET FOR 52 WK (STUDY DURATION: 52 WK), Species: RAT, Strain/Sex: F344/MALE, Target Tissue: Type of Lesion: LYMPHATIC SYSTEM: LYMPHOMA, Dose [Carcinogen]: 400 PPM IN DIET FOR 10 WK THEN 200 PPM TO WK 14 FOLLOWED BY 100 PPM FOR DURATION OF STUDY): 75%, 6%, 92%, not calculated | tumour outcome (control, treated, inhibition, significance) (Carcinogen: 2-AMINO-1-METHYL-6-PHENYLIMIDAZO[4,5-B]PYRIDINE, 105650-23-5, 400 PPM IN DIET FOR 52 WK (STUDY DURATION: 52 WK), Species: RAT, Strain/Sex: F344/MALE, Target Tissue: Type of Lesion: LYMPHATIC SYSTEM: LYMPHOMA, Dose [Carcinogen]: 400 PPM IN DIET FOR 10 WK THEN 200 PPM TO WK 14 FOLLOWED BY 100 PPM FOR DURATION OF STUDY): 75%, 0%, 100%, not calculated | tumour outcome (control, treated, inhibition, significance) (Carcinogen: 4-(METHYLNITROSAMINO)-1-(3-PYRIDYL)-1-BUTANONE, 64091-91-4, 0.25 G/KG DIET (EFFECTIVE DOSE 3.31 UMOL/D) BEGINNING 2 WK PRIOR TO CARCINOGEN TREATMENT AND CONTINUING FOR DURATION, Species: MOUSE, Strain/Sex: STRAIN-A/FEMALE, Target Tissue: Type of Lesion: LUNG: TUMORS, Dose [Carcinogen]: 9.0-9.2 MG/MOUSE (TOTAL DOSE) IN DRINKING WATER ADMINISTERED OVER 7 WK): 28/28 (100%), 25/25 (100%), 0%, not significant | tumour outcome (control, treated, inhibition, significance) (Carcinogen: AZOXYMETHANE, 25843-45-2, 200 PPM IN DIET 7 WK PRIOR TO CARCINOGEN TREATMENT AND CONTINUING FOR STUDY DURATION (STUDY DURATION: 59 WK), Species: RAT, Strain/Sex: F344/MALE, Target Tissue: Type of Lesion: COLON: ADENOCARCINOMA, Dose [Carcinogen]: 15 MG/KG 1/WK FOR 2 WK): 72%, 47%, 35%, p<0.05 | tumour outcome (control, treated, inhibition, significance) (Carcinogen: AZOXYMETHANE, 25843-45-2, 200 PPM IN DIET 7 WK PRIOR TO CARCINOGEN TREATMENT AND CONTINUING FOR STUDY DURATION (STUDY DURATION: 59 WK), Species: RAT, Strain/Sex: F344/MALE, Target Tissue: Type of Lesion: COLON: ADENOMA, Dose [Carcinogen]: 15 MG/KG 1/WK FOR 2 WK): 14%, 6%, 57%, p<0.05 | tumour outcome (control, treated, inhibition, significance) (Carcinogen: AZOXYMETHANE, 25843-45-2, 200 PPM IN DIET 7 WK PRIOR TO CARCINOGEN TREATMENT AND CONTINUING FOR STUDY DURATION (STUDY DURATION: 59 WK), Species: RAT, Strain/Sex: F344/MALE, Target Tissue: Type of Lesion: SMALL INTESTINE: ADENOCARCINOMA, Dose [Carcinogen]: 15 MG/KG 1/WK FOR 2 WK): 50%, 16%, 68%, p<0.001 | tumour outcome (control, treated, inhibition, significance) (Carcinogen: AZOXYMETHANE, 25843-45-2, 200 PPM IN DIET BEGINNING 2 WK PRIOR TO CARCINOGEN TREATMENT AND CONTINUING FOR 3 D POST LAST CARCINOGEN DOSE FOLLOWE, Species: RAT, Strain/Sex: F344/MALE, Target Tissue: Type of Lesion: COLON: INVASIVE ADENOCARCINOMA, Dose [Carcinogen]: 15 MG/KG 1/WK FOR 2 WK): 33%, 3%, 91%, p<0.001 | tumour outcome (control, treated, inhibition, significance) (Carcinogen: AZOXYMETHANE, 25843-45-2, 200 PPM IN DIET BEGINNING 2 WK PRIOR TO CARCINOGEN TREATMENT AND CONTINUING FOR 3 D POST LAST CARCINOGEN DOSE FOLLOWE, Species: RAT, Strain/Sex: F344/MALE, Target Tissue: Type of Lesion: COLON: NONINVASIVE ADENOCARCINOMA, Dose [Carcinogen]: 15 MG/KG 1/WK FOR 2 WK): 53%, 43%, 19%, not significant | tumour outcome (control, treated, inhibition, significance) (Carcinogen: AZOXYMETHANE, 25843-45-2, 200 PPM IN DIET BEGINNING 2 WK PRIOR TO CARCINOGEN TREATMENT AND CONTINUING FOR 3 D POST LAST CARCINOGEN DOSE FOLLOWE, Species: RAT, Strain/Sex: F344/MALE, Target Tissue: Type of Lesion: SMALL INTESTINE: INVASIVE ADENOCARCINOMA, Dose [Carcinogen]: 15 MG/KG 1/WK FOR 2 WK): 22%, 7%, 68%, p<0.05 | tumour outcome (control, treated, inhibition, significance) (Carcinogen: AZOXYMETHANE, 25843-45-2, 200 PPM IN DIET BEGINNING 2 WK PRIOR TO CARCINOGEN TREATMENT AND CONTINUING FOR 3 D POST LAST CARCINOGEN DOSE FOLLOWE, Species: RAT, Strain/Sex: F344/MALE, Target Tissue: Type of Lesion: SMALL INTESTINE: NONINVASIVE ADENOCARCINOMA, Dose [Carcinogen]: 15 MG/KG 1/WK FOR 2 WK): 6%, 3%, 50%, not significant | tumour outcome (control, treated, inhibition, significance) (Carcinogen: AZOXYMETHANE, 25843-45-2, 200 PPM IN DIET BEGINNING 3 D POST LAST CARCINOGEN DOSE AND CONTINUING FOR DURATION OF STUDY (STUDY DURATION: 56 WK), Species: RAT, Strain/Sex: F344/MALE, Target Tissue: Type of Lesion: COLON: INVASIVE ADENOCARCINOMA, Dose [Carcinogen]: 15 MG/KG 1/WK FOR 2 WK): 33%, 0%, 100%, p<0.001 | tumour outcome (control, treated, inhibition, significance) (Carcinogen: AZOXYMETHANE, 25843-45-2, 200 PPM IN DIET BEGINNING 3 D POST LAST CARCINOGEN DOSE AND CONTINUING FOR DURATION OF STUDY (STUDY DURATION: 56 WK), Species: RAT, Strain/Sex: F344/MALE, Target Tissue: Type of Lesion: COLON: NONINVASIVE ADENOCARCINOMA, Dose [Carcinogen]: 15 MG/KG 1/WK FOR 2 WK): 53%, 73%, -38%, not significant | tumour outcome (control, treated, inhibition, significance) (Carcinogen: AZOXYMETHANE, 25843-45-2, 200 PPM IN DIET BEGINNING 3 D POST LAST CARCINOGEN DOSE AND CONTINUING FOR DURATION OF STUDY (STUDY DURATION: 56 WK), Species: RAT, Strain/Sex: F344/MALE, Target Tissue: Type of Lesion: SMALL INTESTINE: INVASIVE ADENOCARCINOMA, Dose [Carcinogen]: 15 MG/KG 1/WK FOR 2 WK): 22%, 20%, 9%, not significant | tumour outcome (control, treated, inhibition, significance) (Carcinogen: AZOXYMETHANE, 25843-45-2, 200 PPM IN DIET BEGINNING 3 D POST LAST CARCINOGEN DOSE AND CONTINUING FOR DURATION OF STUDY (STUDY DURATION: 56 WK), Species: RAT, Strain/Sex: F344/MALE, Target Tissue: Type of Lesion: SMALL INTESTINE: NONINVASIVE ADENOCARCINOMA, Dose [Carcinogen]: 15 MG/KG 1/WK FOR 2 WK): 6%, 3%, 50%, not significant | tumour outcome (control, treated, inhibition, significance) (Carcinogen: AZOXYMETHANE, 25843-45-2, 200 PPM IN DIET FOR 56 WK BEGINNING 2 WK PRIOR TO CARCINOGEN TREATMENT (STUDY DURATION: 56 WK), Species: RAT, Strain/Sex: F344/MALE, Target Tissue: Type of Lesion: COLON (DISTAL): TUMOR, Dose [Carcinogen]: 15 MG/KG 1/WK FOR 2 WK): 47%, 28%, 40%, not significant | tumour outcome (control, treated, inhibition, significance) (Carcinogen: AZOXYMETHANE, 25843-45-2, 200 PPM IN DIET FOR 56 WK BEGINNING 2 WK PRIOR TO CARCINOGEN TREATMENT (STUDY DURATION: 56 WK), Species: RAT, Strain/Sex: F344/MALE, Target Tissue: Type of Lesion: COLON (PROXIMAL): TUMOR, Dose [Carcinogen]: 15 MG/KG 1/WK FOR 2 WK): 39%, 30%, 23%, not significant
